The numbers were not newly measured in patent US20050263150A1, “Systems and methods for the administration of drugs and medications” (priority 2004, published 2005), which cites them from elsewhere.

The structures appear in SMILES notation. Read-outs that look alike come from different tables or passages of the source.

The conditions of series [1]: ketamine combined with benzodiazepines and barbiturates, extends ketamine's half-life.
The conditions of series [2]: for duration of action: in vivo.

For the molecule `CNC1(c2ccccc2Cl)CCCCC1=O` (stereo not drawn) [Ketamine, 2-(2-chlorophenyl)-2-(methylamino)-cyclohexanone], in series [1], the “prolonging clinical recovery time” value is “about 30%”.
As to `C=CCC1(C(C)C#CCC)C(=O)N=C(O)N(C)C1=O` (stereo not drawn) [Methohexital], the duration of action result in series [2] was “less than 10 minutes”. In addition, the onset of action result in series [2] (procedural sedation) is listed as “less than 1 minute”.
With `[N-]=[N+]=O` [Nitrous oxide], the duration of action in series [2] was 3 to 5 min. In addition, the onset of action in series [2] (sedative/analgesic) was 3 to 5 min.
In the case of `CC(C)c1cccc(C(C)C)c1O` [Propofol], the solubility in water entry is listed as “almost completely insoluble in water”.
